Experimental findings from ChEMBL document CHEMBL1140757, “Studies toward the structural optimization of new brazilizone-related trypanocidal 1,3,4-thiadiazole-2-arylhydrazone derivatives” (Bioorg Med Chem, 2008) are described below.

pIC50: −log10 of the molar value.

For the experiment, the system named is Trypanosoma cruzi. The experiment in a line: Trypanocidal activity against Trypanosoma cruzi Y trypomastigotes assessed as parasite lysis. The experiment is classed as functional, organism-based.
In general, pIC50 refers to the negative decadic logarithm of the IC50, by convention in mol/L. With `Cn1c([N+](=O)[O-])cnc1-c1nnc(N/N=C/c2cccc(Cl)c2Cl)s1`, the pIC50 is 2.92.
The figure for `Cn1c([N+](=O)[O-])cnc1-c1nnc(N/N=C/c2cc(O)ccc2O)s1` is 3.85; for `COc1cc(/C=N/Nc2nnc(-c3ncc([N+](=O)[O-])n3C)s2)cc([N+](=O)[O-])c1O` it is 4.72.
The value for `Cn1c([N+](=O)[O-])cnc1-c1nnc(N/N=C/c2cccc(O)c2)s1` was 4.13; that for `Cn1c([N+](=O)[O-])cnc1-c1nnc(N/N=C/c2cccc([N+](=O)[O-])c2)s1` was 4.32.
The figure for `Cn1c([N+](=O)[O-])cnc1-c1nnc(N/N=C/c2ccccc2[N+](=O)[O-])s1` is 3.14; for `Cn1c([N+](=O)[O-])cnc1-c1nnc(N/N=C/c2cccc(Br)c2)s1` it is 3.14; for `Cn1c([N+](=O)[O-])cnc1-c1nnc(N/N=C/c2cccc(Cl)c2)s1` it is 3.73.
For `Cn1c([N+](=O)[O-])cnc1-c1nnc(N/N=C/c2ccc(Cl)cc2Cl)s1`, the pIC50 is 3.10.
For `Cn1c([N+](=O)[O-])cnc1-c1nnc(N/N=C/c2ccccc2Cl)s1`, the pIC50 is 3.85.
The value for `Cn1c([N+](=O)[O-])cnc1-c1nnc(N/N=C/c2ccccc2Br)s1` was 3.05.
Consider `Cn1c([N+](=O)[O-])cnc1-c1nnc(N/N=C/c2cccc(O)c2O)s1`, for which the pIC50 was 3.51.
